# In patent US20200354426A1 (MEDIMMUNE LIMITED, priority 2016, published 2020):
# Read-outs that look alike come from different tables or passages of the source. Numbered stars: 1 amine (or outer) side, 2 acyl side, 3 side chain; on linkers, the order of the positions; unused ones are H or OH. Side chains are listed from the residue outwards. Peptide text beside a SMILES is read from it. * marks the point of attachment. γGlu = O=C(O)[C@H](CCC(=O)[*:2])N[*:1]; Palmitoyl = CCCCCCCCCCCCCCCC(=O)*
# Legend:
# Human GIPr = molecular target: T1, Human GIPr (Homo sapiens, UniProt P48546); test: cAMP activity assay in assay medium (assay 1); type: cell-based; settings: assay medium
# T1 construct: expressed in transfected cells
# T1 sequence (P48546 22-466): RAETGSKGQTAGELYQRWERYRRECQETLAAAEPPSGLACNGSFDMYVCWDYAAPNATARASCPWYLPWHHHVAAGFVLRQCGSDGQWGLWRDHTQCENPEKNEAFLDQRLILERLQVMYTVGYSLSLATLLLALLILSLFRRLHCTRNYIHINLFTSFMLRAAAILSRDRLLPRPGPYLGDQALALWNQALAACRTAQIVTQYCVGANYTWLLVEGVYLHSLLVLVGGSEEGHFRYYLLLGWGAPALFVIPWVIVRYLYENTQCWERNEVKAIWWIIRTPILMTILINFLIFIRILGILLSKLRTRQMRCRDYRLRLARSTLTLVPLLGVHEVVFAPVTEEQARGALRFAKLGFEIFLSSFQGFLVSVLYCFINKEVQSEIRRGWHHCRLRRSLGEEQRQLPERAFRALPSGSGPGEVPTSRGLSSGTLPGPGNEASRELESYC
# Text: (§1) Biological Activity of Peptides in Cell-Based cAMP Activity Assay (Assay 1):
# (§2) All sample dilutions were made in duplicate.
# Human GLP1R [1] = molecular target: T2, Human GLP1R (Homo sapiens, UniProt P43220); test: cell-based
# T2 sequence (P43220 24-463): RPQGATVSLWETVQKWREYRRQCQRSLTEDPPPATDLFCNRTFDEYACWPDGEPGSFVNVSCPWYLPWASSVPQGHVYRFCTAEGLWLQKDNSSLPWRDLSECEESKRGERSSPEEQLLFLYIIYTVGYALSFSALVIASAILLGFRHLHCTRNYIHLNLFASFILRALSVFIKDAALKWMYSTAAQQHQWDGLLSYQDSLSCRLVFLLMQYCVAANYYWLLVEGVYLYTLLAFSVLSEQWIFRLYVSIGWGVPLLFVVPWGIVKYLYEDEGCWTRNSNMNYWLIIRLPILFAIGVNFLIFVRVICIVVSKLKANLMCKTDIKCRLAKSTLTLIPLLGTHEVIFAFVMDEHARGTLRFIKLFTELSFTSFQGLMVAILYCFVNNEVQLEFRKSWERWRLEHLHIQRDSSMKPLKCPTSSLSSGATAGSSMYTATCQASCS
# Human GLP1R [2] = molecular target: T2, Human GLP1R; test: cAMP activity assay in assay medium (assay 1); type: cell-based; design: expressed in transfected cells; settings: assay medium
# Text: as §1, §2
structure (smiles),measurement,setting,value
CCCCCCCCCCCCCCCC(=O)N[C@@H](CCC(=O)NCCCC[C@H](NC(=O)[C@H](CCCCN)NC(=O)[C@H](CO)NC(=O)[C@H](Cc1ccc(O)cc1)NC(=O)[C@H](CC(=O)O)NC(=O)[C@H](CO)NC(=O)[C@@H](NC(=O)[C@H](Cc1ccccc1)NC(=O)[C@@H](NC(=O)CNC(=O)[C@H](CCC(N)=O)NC(=O)[C@H](CO)NC(=O)[C@@H](N)Cc1c[nH]cn1)[C@@H](C)O)[C@@H](C)O)C(=O)N[C@@H](CC(C)C)C(=O)N[C@@H](CC(=O)O)C(=O)N[C@@H](CO)C(=O)N[C@@H](CCC(=O)O)C(=O)N[C@@H](CCCNC(=N)N)C(=O)N[C@@H](C)C(=O)N[C@@H](CCCNC(=N)N)C(=O)N[C@@H](CC(=O)O)C(=O)N[C@@H](Cc1ccccc1)C(=O)N[C@H](C(=O)N[C@@H](C)C(=O)N[C@@H](Cc1c[nH]c2ccccc12)C(=O)N[C@@H](CC(C)C)C(=O)N[C@H](C(=O)N[C@@H](C)C(=O)NCC(=O)NCC(N)=O)C(C)C)C(C)C)C(=O)O [Peptide G730] (H-HSQGTFTSDYSKK([γGlu-Palmitoyl])LDSERARDFVAWLVAGG-NH2; N-terminus assumed),EC50,"Human GIPr; Table 2, C-terminal amide peptides, read-out: Human GIPr EC50",45 nM
same,EC50,"Human GIPr; Table 4, read-out: hGIPR EC50",56.6 nM
same,EC50,"Human GLP1R [1]; EC50 at the GLP1R at 0% HSA, calculated from variation in cAMP generation with HSA concentration",0.007 nM
same,EC50,"Human GLP1R [1]; Human GLP1R EC50, 4.4% human serum albumin",0.455 nM
same,EC50,"Human GLP1R [2]; Table 2, C-terminal amide peptides, read-out: Human GLP1R EC50",0.018 nM
same,EC50,"Human GLP1R [2]; Table 4, read-out: hGLP1R EC50",0.0395 nM
